From patent publication US20130023535A1, “METHOD OF PREVENTING AND/OR TREATING DIABETIC NEUROPATHY” (Astellas Pharma Inc., priority 2007, published 2013)
Like-named read-outs stand apart in the source and are kept apart here.

What was measured:
[1] = system: STZ (streptozotocin)-induced diabetic rats; settings: vs vehicle group
Procedure: STZ (streptozotocin)-induced diabetic rats were prepared according to the following procedure. STZ (45 mg/kg) was intravenously administered to rats at the age of 7 weeks. At week 2 after administration of STZ, the blood was collected from the tail vein and the blood glucose level was measured to confirm that the blood glucose level was increased to 300 mg/dl or more. In the administration group, the rats were grouped so as to minimize the variation in the mean values of body weight, blood glucose level and pain response threshold measured on the previous day of the administration of the drug. A non-administration group of STZ was separately prepared and used as Normal group. A test drug was orally administered once daily for 28 consecutive days. Paresthesia due to neuropathy was determined by a von Frey Test (pain threshold test) at two time points, at 1 hour after administration on day 28 and on day 7 of cessation of the drug after the last administration (Pain, vol. 53, pp. 81-88, 1993). The test was initiated after the rats were placed in a cage for observation and acclimated for at least 20 minutes. By using a digital von Frey Test model 2390 (manufactured by IITC Inc.), a tip end was lightly applied to a paw. When there was no response, an applied load was increased from 1 to 3 g. The pain threshold was determined as an applied load (g) at which an avoidance response such as paw withdrawal was observed. In each animal, the measurement was performed twice for each of the left and right paws, and the mean of the 4 values was calculated as a withdrawal threshold (g). The improvement of paresthesia was determined based on the recovery of the withdrawal threshold in a drug administration group as compared with a vehicle (distilled water) administration group. Statistical test was performed between the vehicle administration group and the drug administration groups. For confirming the onset of diabetic neuropathy, a Student's t-test was also performed to compare the vehicle administration group and the Normal group.

[2] = system: fibroblast growth factor 2 (FGF-2); test: Quantitative PCR of neurotrophic factor expression, spinal cord lumbar region of STZ-induced diabetic rats; format: in vivo, rat; settings: 30 mg/kg
Procedure: (§1) In order to verify whether (+)-2-[(1H-inden-7-yloxy)methyl]morpholine hydrochloride acts on the expression levels of neurotrophic factors, an improving effect of (+)-2-[(inden-7-yloxy)methyl]morpholine hydrochloride on a decrease in the expression levels of neurotrophic factors in the spinal cord and the dorsal root ganglia of STZ-induced diabetic rats was examined.
(§2) The expression levels of neurotrophic factors were measured in the animals on day 7 to 8 of cessation of the drug withdrawal after the repeated daily administration in each of the Normal group, the vehicle administration group (STZ-induced diabetic rats) and the drug administration group at a dose of 30 mg/kg (STZ-induced diabetic rats) in Example 2. The spinal cord lumbar region and the dorsal root ganglia (L4, L5, and L6) were excised and the total RNA was extracted from the excised specimens using an RNA extraction kit RNeasy (Qiagen). […] A quantitative PCR analysis was performed for the obtained cDNA using primers to fibroblast growth factor 2 (FGF-2), insulin-like growth factor 1 (IGF-1), and glyceraldehyde-3-phosphate dehydrogenase (G3PDH) by PRISM 7900 (ABI). […] The improving effect on a decrease in the expression levels of neurotrophic factors were determined based on the recovery on the expression levels of neurotrophic factors in the drug administration group as compared with the vehicle administration group. […]

[3] = biological target: T1, Cytochrome P-450 (1A2) (Homo sapiens, UniProt P05177); test: Test for Cytochrome P-450 (1A2) enzyme inhibition using human liver microsomes; format: in vitro ADME
T1 construct: 0.2 mg protein/mL human liver microsomes; from tissue; host or cells: human liver microsomes
T1 sequence (P05177 1-516): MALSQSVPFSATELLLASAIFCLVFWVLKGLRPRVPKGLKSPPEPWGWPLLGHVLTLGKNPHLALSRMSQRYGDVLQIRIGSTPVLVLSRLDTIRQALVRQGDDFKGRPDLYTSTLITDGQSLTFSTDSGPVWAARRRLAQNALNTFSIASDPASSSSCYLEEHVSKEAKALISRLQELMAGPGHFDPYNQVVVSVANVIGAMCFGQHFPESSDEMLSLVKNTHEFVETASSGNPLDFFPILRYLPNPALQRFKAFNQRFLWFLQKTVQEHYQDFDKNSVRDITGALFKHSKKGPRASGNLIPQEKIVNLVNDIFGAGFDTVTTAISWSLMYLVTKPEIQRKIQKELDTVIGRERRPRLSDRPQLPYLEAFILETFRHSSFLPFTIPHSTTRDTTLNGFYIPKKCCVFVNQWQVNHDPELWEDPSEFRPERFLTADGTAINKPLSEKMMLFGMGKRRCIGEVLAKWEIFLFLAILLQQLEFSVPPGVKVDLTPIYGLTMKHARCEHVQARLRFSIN
Procedure: An experiment was performed according to the method of Rae Yuan et al. (Drug Metabolism and Disposition, 30(12), 1311-1319, 2002).
By using a 96-well plate, a test drug (0.3 to 10 μmol/L) was added to 100 mmol/L Na-K phosphate buffer (pH=7.4) containing 0.1 mmol/L ethylenediaminetetraacetic acid (EDTA), 1 mmol/L nicotinamide adenine dinucleotide phosphate (NADPH), and 0.2 mg protein/mL human liver microsomes, and the total volume was made up to 145 μL, and then, preincubation of the resulting mixture was started at 37° C. At 5 minutes after the start of preincubation, phenacetin (20 mmol/L) was added thereto as a substrate for P450(1A2), and the total volume was made up to 150 μL, and then, the resulting mixture was incubated at 37° C. for 20 minutes. Thereafter, 130 μL of acetonitrile was added to the sample to stop the reaction. For the sample in which the reaction was stopped, the concentration of acetaminophen which is a metabolite of phenacetin was determined using LC/MS/MS.
A production amount of acetaminophen in the absence of the test drug was taken as 100%, and a production amount of acetaminophen in the presence of the test drug was calculated for each concentration of the test drug. Based on the calculated production amount for each concentration of the test drug, a concentration of the test drug at which the production amount of acetaminophen was 50% (IC50 value) was calculated from the following equation. The test was performed for two cases, and a mean value was used for the calculation of each value.
Production amount [I] (%)=100/(1+[I]/IC50)
Production amount [I] (%): (Production amount of acetaminophen when the test compound concentration was [I])/(Production amount of acetaminophen in the absence of test compound)×100

[4] = system: insulin-like growth factor 1 (IGF-1); test: Quantitative PCR of neurotrophic factor expression, dorsal root ganglia of STZ-induced diabetic rats; format: in vivo, rat; settings: 30 mg/kg
Procedure: as §1, §2

[5] = system: STZ-induced diabetic rats; test: Motor nerve conduction velocity (MNCV) in STZ-induced diabetic rats; format: in vivo, rat; settings: 30 mg/kg
Procedure: The measurement was performed using the method of Cameron et al. (The Journal of Experimental Physiology, vol. 74, pp. 917-926, 1989) with some modification.
1 were used. Further, the same test was performed also for the Normal group. The rats were anesthetized with sodium pentobarbital, and the temperature of the rectum was maintained at about 37.5° C. using a body temperature maintenance device for small animals, and then, the MNCV was measured using an evoked potential measurement device. First, a positive stimulating electrode was attached to a dorsal region. […] Then, an average waveform evoked by the stimulation was derived from bipolar recording electrodes inserted into a gastrocnemius muscle region of the hind limb of the same side, and the latency (sec) from the start of stimulation to the first deflection of an M-wave was measured. Thereafter, the tibial nerve around behind the knee was stimulated with a negative stimulating electrode in the same manner as above, and the latency (sec) was measured in the same manner as in the gastrocnemius muscle region. A value obtained by dividing a distance (m) between the two regions stimulated with the negative stimulating electrode by a difference (sec) in the M-wave latency measured in the above two stimulation experiments was determined to be an MNCV value. […]

[6] = 30 mg/kg orally once daily for 28 days, measured on day 7 of cessation of drug
[7] = 30 mg/kg orally once daily, day 28 of repeated administration, 1 hour after administration

CYP inhibitory activity [3] | possibility of drug-drug interaction by oral administration ([3]; from difference between IC50 and Cmax at oral administration) | IC50 ([3]; human liver microsomes, substrate phenacetin, acetaminophen production, mean of two cases) [µM] | SMILES | effect on the decrease in the withdrawal threshold (von Frey test) [1, 6] | effect on the decrease in the withdrawal threshold (von Frey test) [1, 7] | effect on the decrease in the expression level of FGF-2 [2] | relative gene expression level of FGF-2 normalized by G3PDH ([2]; p.o., day 7 to 8 of cessation, mean ± SEM, Normal 100.0, Vehicle 66.9) | effect on the decrease in the expression level of IGF-1 [4] | relative gene expression level of IGF-1 normalized by G3PDH ([4]; p.o., day 7 to 8 of cessation, mean ± SEM, Normal 100.0, Vehicle 54.6) | MNCV ([5]; p.o., day 7 to 8 of drug withdrawal after repeated daily administration, mean ± SEM, Normal 62.4, Vehicle 49.4) [m/s] | improving effect on a decrease in MNCV ([5]; vs vehicle group)
 |  |  | C1=Cc2cccc(OCC3CNCCO3)c2C1.Cl (racemic) [(±)-2-[(inden-7-yloxy)methyl]morpholine hydrochloride] | significantly restored the decrease in the withdrawal threshold | significantly restored the decrease in the withdrawal threshold |  |  |  |  |  | 
extremely weak | extremely low | 8.1 | C1=Cc2cccc(OCC3CNCCO3)c2C1.Cl (single isomer, unassigned; (+)) [(+)IDX, (+)-2-[(1H-inden-7-yloxy)methyl]morpholine hydrochloride] | significantly restored the decrease in the withdrawal threshold | significantly restored the decrease in the withdrawal threshold | significantly recovers the decrease in the expression levels | 103.5 ± 4.9 | significantly recovers the decrease in the expression levels | 67.7 ± 3.2 | 53.3 ± 1.1 | significant improving effect
